Data from article PMC7377239, “Cardiovascular Effects of Polychlorinated Biphenyls and Their Major Metabolites” (Environmental Health Perspectives, 2020).
Where a name gives a salt, the structure may show the parent alone. Read-outs that look alike come from different tables or passages of the source.

Tests used:
[1] = test system: iCell endothelial cells (human iPSC-derived ECs); experiment: Tube formation (tubulogenesis) assay in iCell endothelial cells, 18 h; type: cell-based; conditions: Homo sapiens, Endothelial cell, 18 hr; for activity at 0.1 µM: 0.10 µM
In short: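 Tube formation was measured by calcein AM imaging after overnight compound exposure (37°C, 0.5% DMSO vehicle) of human iPSC-derived ECs, 7,500/well, on reduced-growth-factor Geltrex in starvation medium. Vehicle-normalized data fitted to four-parameter logistic; POD set at one vehicle SD; without response, 100 μM taken as NOAEL.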

[2] = test system: iCell endothelial cells (human iPSC-derived ECs); experiment: High-content imaging cytotoxicity in iCell endothelial cells, 24 h; type: cell-based; conditions: Homo sapiens, Endothelial cell, 24 hr; for viability at 0.1 µM / activity at 0.1 µM: 0.10 µM
In short: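 Readouts were vehicle-normalised and fitted to a four-parameter logistic model. POD was set at one SD beyond 0.5% DMSO control means, and 100 µM was assigned when no response was seen. Cells were monolayers of iCell endothelial cells imaged after 24 h compound exposure using nuclear, mitochondrial and calcein dyes.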

[3] = iPSC-EC tube formation, 0.00 µM control = 100.00, read-out: endo.mtl.18hr
[4] = iPSC-EC tube formation, 0.00 µM control = 100.00, read-out: endo.tlps.18hr
[5] = iPSC-EC tube formation, 0.00 µM control = 100.00, read-out: endo.tta.18hr
[6] = iPSC-EC tube formation, 0.00 µM control = 100.00, read-out: endo.ttl.18hr
[7] = iPSC-EC, 0.00 µM control = 100.00, read-out: endo.cyto.24hr
[8] = iPSC-EC, 0.00 µM control = 100.00, read-out: endo.mito.24hr
[9] = iPSC-EC, 0.00 µM control = 100.00, read-out: endo.mitoint.24hr
[10] = iPSC-EC, 0.00 µM control = 100.00, read-out: endo.nma.24hr
[11] = iPSC-EC, 0.00 µM control = 100.00, read-out: endo.tc.24hrs

Compound: O=S(=O)(O)Oc1cccc(-c2ccc(Cl)cc2)c1 [3'-yl PCB 3 sulfate]
- activity at 0.01 µM [1, 3]: 93.5%
- activity at 0.01 µM [1, 4]: 81.8%
- activity at 0.01 µM [1, 5]: 112%
- activity at 0.01 µM [1, 6]: 103%
- activity at 0.1 µM [1, 3]: 87.9%
- activity at 0.1 µM [1, 4]: 126%
- activity at 0.1 µM [1, 5]: 93%
- activity at 0.1 µM [1, 6]: 88.2%
- activity at 1 µM [1, 3]: 91.5%
- activity at 1 µM [1, 4]: 103%
- activity at 1 µM [1, 5]: 108%
- activity at 1 µM [1, 6]: 98.9%
- activity at 10 µM [1, 3]: 70.7%
- activity at 10 µM [1, 4]: 99.4%
- activity at 10 µM [1, 5]: 63.7%
- activity at 10 µM [1, 6]: 60%
- activity at 100 µM [1, 3]: 59.2%
- activity at 100 µM [1, 4]: 33.7%
- activity at 100 µM [1, 5]: 59.5%
- activity at 100 µM [1, 6]: 60.4%
- minimal effective concentration ([1]; iPSC-EC tube formation, top concentration 100.00 µM, read-out: endo.mtl.18hr POD): 0.58 µM
- minimal effective concentration ([1]; iPSC-EC tube formation, top concentration 100.00 µM, read-out: endo.tlps.18hr POD): 38.6 µM
- minimal effective concentration ([1]; iPSC-EC tube formation, top concentration 100.00 µM, read-out: endo.tta.18hr POD): 11.6 µM
- minimal effective concentration ([1]; iPSC-EC tube formation, top concentration 100.00 µM, read-out: endo.ttl.18hr POD): 8.75 µM
- viability at 0.01 µM [2, 7]: 101%
- activity at 0.01 µM [2, 8]: 101%
- activity at 0.01 µM [2, 9]: 106%
- activity at 0.01 µM [2, 10]: 99.3%
- viability at 0.01 µM [2, 11]: 101%
- viability at 0.1 µM [2, 7]: 93.7%
- activity at 0.1 µM [2, 8]: 93.7%
- activity at 0.1 µM [2, 9]: 105%
- activity at 0.1 µM [2, 10]: 103%
- viability at 0.1 µM [2, 11]: 93.7%
- viability at 1 µM [2, 7]: 97.2%
- activity at 1 µM [2, 8]: 97.2%
- activity at 1 µM [2, 9]: 105%
- activity at 1 µM [2, 10]: 102%
- viability at 1 µM [2, 11]: 97.2%
- viability at 10 µM [2, 7]: 98.7%
- activity at 10 µM [2, 8]: 98.8%
- activity at 10 µM [2, 9]: 111%
- activity at 10 µM [2, 10]: 99.5%
- viability at 10 µM [2, 11]: 98.7%
- viability at 100 µM [2, 7]: 98.5%
- activity at 100 µM [2, 8]: 98.5%
- activity at 100 µM [2, 9]: 103%
- activity at 100 µM [2, 10]: 97.4%
- viability at 100 µM [2, 11]: 98.5%
- minimal effective concentration ([2]; iPSC-EC, top concentration 100.00 µM, read-out: endo.cyto.24hr POD): 100 µM
- minimal effective concentration ([2]; iPSC-EC, top concentration 100.00 µM, read-out: endo.mito.24hr POD): 100 µM
- minimal effective concentration ([2]; iPSC-EC, top concentration 100.00 µM, read-out: endo.mitoint.24hr POD): 100 µM
- minimal effective concentration ([2]; iPSC-EC, top concentration 100.00 µM, read-out: endo.nma.24hr POD): 100 µM
- minimal effective concentration ([2]; iPSC-EC, top concentration 100.00 µM, read-out: endo.tc.24hrs POD): 100 µM

Compound: O=S(=O)(O)Oc1cc(-c2ccccc2)ccc1Cl [3-PCB 3 sulfate]
- minimal effective concentration ([1]; endothelial cells (endo), tube formation mtl, read-out: POD endo.mtl.18hr): 100 µM
- minimal effective concentration ([1]; endothelial cells (endo), tube formation tlps, read-out: POD endo.tlps.18hr): 6.75 µM
- minimal effective concentration ([1]; endothelial cells (endo), tube formation tta, read-out: POD endo.tta.18hr): 100 µM
- minimal effective concentration ([1]; endothelial cells (endo), tube formation ttl, read-out: POD endo.ttl.18hr): 100 µM
- minimal effective concentration ([2]; endothelial cells (endo), cyto, read-out: POD endo.cyto.24hr): 100 µM
- minimal effective concentration ([2]; endothelial cells (endo), mito, read-out: POD endo.mito.24hr): 100 µM
- minimal effective concentration ([2]; endothelial cells (endo), mitoint, read-out: POD endo.mitoint.24hr): 100 µM
- minimal effective concentration ([2]; endothelial cells (endo), nma, read-out: POD endo.nma.24hr): 100 µM
- minimal effective concentration ([2]; endothelial cells (endo), tc, read-out: POD endo.tc.24hr): 100 µM
